Measured values from paper PMC6411751, “Use of machine learning to identify novel, behaviorally active antagonists of the insect odorant receptor co-receptor (Orco) subunit” (Scientific Reports, 2019).
Counter-ions that a name gives are not always drawn.

Key:
[1] = tested on: sham (water) injected oocytes; experiment: Application of Orco antagonists to sham (water) injected oocytes; type: cell-based, Xenopus laevis; settings: 3 mM
Procedure: To measure antagonist activity at Orco, Agam\Orco was activated by the Orco agonist OLC12[34]. Following two successive 60 sec applications of 30 μM OLC12, with 5 min washes between applications, each antagonist candidate was applied for 90 sec, immediately followed by a 60 sec co-application of antagonist candidate and OLC12. The 90 sec application of each compound alone (prior to co-application of the compound and OLC12) allowed us to ensure that antagonist candidate compounds were not causing non-specific effects on the oocytes that might confound the results. The current response to OLC12 in the presence of antagonist candidate was compared to the mean of the preceding two responses to OLC12 alone and presented as a percentage[34],[35]. This value was then normalized to the value obtained when the assay was run in the absence of antagonist candidate (sham).
Figure S2. Applic a tion of Orco antagonists to s ha m (wa ter) injected oocytes.
Up p e r tra ce, current recording from a sham (water) injected oocyte that was challenged with 60 sec applications of 100 µM an d 1 mM 3-isopropyl-6-methyl-ca t e ch o l (3 I6MC). Representative of recordings from 4 oocytes. Lo we r trace, current recording from a sham (water) injected oocyte that was challenged with 60 sec applications of 3 mM 2-tert-butyl-6-methylphenol (BMP) and linalyl formate (LF). Representative of recordings […]

[2] = tested on: D. melanogaster larvae; experiment: Larval chemotaxis assay (attraction to ethyl acetate); type: in vivo, Drosophila melanogaster; settings: for larval preference, compound alone vs. mineral oil vehicle: 10 µL of 100 mM on plate filter
Procedure: We have previously provided a detailed description of these methods. Briefly, Canton-S (CS) flies were used as wild type (wt). The experimental chamber was a 100 × 15 mm polystyrene Petri dish (VWR) with 20 mL of 1.1% agarose coating the bottom. In this assay, 50 third-instar larvae were placed inside a “starting circle” at the center of the plate (the circle was drawn on the outside bottom of the plate). A line was also drawn that divided the plate in half. Small filter paper discs (d = 6 mm, Whatman Cellulose Filter Paper, # 1030 023) were placed on opposite sides of the plate (see Fig. 8A). Onto each filter paper disc was placed 10 μL of solution, containing either vehicle of dilution (mineral oil), odorant attractant (EA, diluted in mineral oil) or an Orco antagonist compound (diluted in mineral oil). The sides of the plate on which the compounds or vehicle were placed were alternated from experiment to experiment.
In order to test Orco antagonists for the ability to affect the chemotaxis assay, a large (d = 9 cm) filter paper (Whatman Filter Paper # D00161-S) was adhered with double-sided tape to the inside of the Petri dish lid. This allowed the larvae to be exposed to Orco antagonists in an airborne context. For light repulsion experiments, we used a Zeiss CL6000 LED light source at 76% intensity. Following the 5 min migratory period, plates were photographed, coded and then blind counted. Any larvae still within the starting circle or touching the center line were excluded from the analysis. A Response Index (RI) was calculated as RI = (S − C)/(S + C), where S is the number of larvae on the stimulus (EA) side and C is the number of larvae on the control (mineral oil) side. RI = 1 would indicate complete attraction, RI = −1 would indicate complete repulsion, and RI = 0 would indicate no preference. Statistical significance was assessed using a one-way analysis of the variance followed by Dunnett’s’s post-test.

[3] = tested on: ab2 sensilla (EA responsive OSN); experiment: Single sensillum recording (SSR), ab2 sensilla, ethyl acetate response; type: in vivo, Drosophila melanogaster
From the text: (§1) Adult flies (w1118 strain, 3–5 days old) were mounted in truncated pipette tips for detection of antennal responses[69],[70]. EAG data were obtained with an IDAC-232 (Syntech), which was linked to a computer via the EAGpro data acquisition interface. SSR data were acquired with an IDAC 4 and AutoSpike (Syntech). Recording and indifferent electrodes were made of silver/silver chloride wires enclosed in glass capillary needles, which were pulled with a Micropipette Puller (P-97, Sutter Instruments Co.) and filled with 1 M potassium chloride in 1% polyvinylpyrrolidone. The indifferent electrode was inserted in the eye of an immobilized fly, while the EAG recording electrode was placed on the third segment of the antenna under a S2X12 Olympus microscope and by using a micromanipulator MP-12 (Syntech). […] The total flow (continuous plus compensatory or continuous plus stimulus) of 0.6 mL/s was measured at the center of the outlet of the stimulus delivery tube with an Anemometer Lite (Model 6006, Kanomax, Osaka, Japan). […] Spikes were manually counted 0.5 s before and 0.5 s after stimulus and the results presented as poststimulus number of spikes per 0.5 s (number of spikes after stimulus minus number of spikes prior to stimulus). Data were analyzed with One Way ANOVA using Prism 7 (GraphPad).

[4] = tested on: ab1 sensilla (CO2 responsive OSN, Gr21 and Gr63a); experiment: Single sensillum recording (SSR), ab1 sensilla, CO2 response; type: in vivo, Drosophila melanogaster; settings: 10 µL of 1% compound in mineral oil
From the text: as §1

[5] = tested on: fruit fly antennae; experiment: Electroantennogram (EAG) recordings in adult flies; type: in vivo, Drosophila melanogaster; settings: for amplitude of EAG responses to EA and 2 H: adult flies
From the text: Adult flies (w1118 strain, 3–5 days old) were mounted in truncated pipette tips for detection of antennal responses[69],[70]. EAG data were obtained with an IDAC-232 (Syntech), which was linked to a computer via the EAGpro data acquisition interface. SSR data were acquired with an IDAC 4 and AutoSpike (Syntech). Recording and indifferent electrodes were made of silver/silver chloride wires enclosed in glass capillary needles, which were pulled with a Micropipette Puller (P-97, Sutter Instruments Co.) and filled with 1 M potassium chloride in 1% polyvinylpyrrolidone. The indifferent electrode was inserted in the eye of an immobilized fly, while the EAG recording electrode was placed on the third segment of the antenna under a S2X12 Olympus microscope and by using a micromanipulator MP-12 (Syntech). For SSR, the recording electrode was inserted into a desired sensillum under a stage microscope (BX51WI, Olympus) and using a Piezo Manipulator (PM10, World Precision Instrument). The stimulus delivery system consisted of a Stimulus Controller CS-55 (Syntech), which delivered charcoal-filtered, humidified air at 650 mL/min through a stimulus tube (5 cm long; internal diameter, 8 mm). The outlet of the stimulus delivery tube was set 1 cm away from the preparations. Stimulus pulses (0.5 sec) were introduced through a hole in the stimulus delivery tube 2.5 cm away from outlet. A compensatory flow was applied through another hole in the tube (directly across from the stimulus pulse hole). The total flow (continuous plus compensatory or continuous plus stimulus) of 0.6 mL/s was measured at the center of the outlet of the stimulus delivery tube with an Anemometer Lite (Model 6006, Kanomax, Osaka, Japan). 10 µL of the odorants EA and 2 H (freshly diluted to 0.01%, 0.1% or 1% in mineral oil) or the Orco antagonist compounds BMP and LF (freshly diluted to 1% or 50% in mineral oil) were loaded onto filter papers (1 cm^2). The filter papers containing odorants were placed inside of stimulus cartridges. Loading of odorant containing filter papers into the cartridges occurred in ambient air, which could contain trace amounts of odorants. Thus, stimulus pulses with ambient air (filter papers containing mineral oil alone) in the cartridges were used to define a baseline response. For EAG, filter papers containing BMP or LF (50% in mineral oil) were placed inside the main airflow tube 8 cm away from the antenna and odorants were delivered through a hole 2.5 cm away from the outlet. For SSR, BMP (1% in mineral oil) was delivered into the holes 2.5 cm away from the outlet, whereas the odorants were delivered upstream through a hole 4 cm away from the outlet. The different delivery arrangements may contribute to the difference in apparent BMP potency in the EAG and SSR experiments (Figs 6 and 7). Each filter paper was used 3–5 times before being replaced. CO2 was freshly collected into stimulus cartridge from the breath of the same subject (P.X.) and used only once. Spikes were manually counted 0.5 s before and 0.5 s after stimulus and the results presented as poststimulus number of spikes per 0.5 s (number of spikes after stimulus minus number of spikes prior to stimulus). Data were analyzed with One Way ANOVA using Prism 7 (GraphPad).

[6] = 10 µL of 50% compound in mineral oil in main airflow

Structure (SMILES)	non-specific effects on sham (water) injected oocytes [1]	larval attraction to EA with airborne compound ([2]; 30 mM on lid filter)	larval preference, compound alone vs. mineral oil vehicle [2]	larval attraction to EA with airborne compound ([2]; 685 µL of 100 mM on lid filter)	SSR response of ab2 sensilla to EA ([3]; 10 µL of 1% compound in mineral oil, 0.1% EA)	reversibility of effect on ab2 EA response ([3]; subsequent response to EA alone)	SSR response of ab1 sensilla to CO2 [4]	baseline EAG response to ambient air [5, 6]	amplitude of EAG responses to EA and 2 H [5, 6]	extent of inhibition of EAG responses across 0.01%, 0.1%, 1% 2H ([5]; 50% BMP in main airflow, n = 3)	extent of inhibition of EAG responses across 0.01%, 0.1%, 1% EA ([5]; 50% BMP in main airflow, n = 3)	odorant agonist activity in EAG ([5]; compound alone)
Cc1cccc(C(C)(C)C)c1O [BMP, 2-tert-butyl-6-methylphenol]	Neither BMP or LF exerted any non-specific effects	did not significantly affect attraction to EA	displayed no preference	completely abolished larval attraction to EA	abolished the response	reversible	had no effect on the CO2 response	significantly reduced the baseline response	significantly reduced the amplitude	did not differ	did not differ	did not act as an odorant agonist
C=CC(C)(CCC=C(C)C)OC=O (centres unmarked) [LF, linalyl formate]	Neither BMP or LF exerted any non-specific effects	significantly reduce larval attraction to EA	displayed no preference	completely abolished larval attraction to EA	–	–	–	–	did not alter the amplitude	–	–	–
